Measurements: article PMC12593154, “Overcoming Solubility Challenges: Micronization of Berberine Using the GAS Antisolvent Technique” (ACS Omega, 2025)

How the values were obtained:
[1] = Solubility analysis of berberine in organic solvents (excess compound, 24 h agitation, spectrophotometer); type: physicochemical; conditions: organic solvent or mixture, thermodynamic from solid
Method: The solubility study of the compound in different solvents was carried out. Acetone, ethanol, methanol, 1-propanol, 1-butanol, and dichloromethane were used. An excess compound was added to 100 mL of solvent at 25 and 35 °C. The solution was agitated at 100 rpm for 24 h to achieve solid–liquid equilibrium. It was then left for 2 h without stirring to allow the sedimentation of the insolubilized particles. An aliquot was taken and analyzed with a spectrophotometer.

[2] = Particle size by scanning electron microscopy (length and width of 200 particles); type: physicochemical; conditions: SEM, GAS at 35 °C, 80 bar
Method: Berberine was micronized using the antisolvent gas technique based on the studies of Pessoa et al. (2019) and Sakata et al. (2021). First, the solution was prepared at 1 mg/mL with the selected solvents and then added to the cell. The CO2 was introduced into the cell at a flow rate of 10 and 20 mL/min until the pressure reached 80 bar, with an operating temperature of 35 °C. The mixture was held at 80 bar for 10 min for homogenization. The solvent was removed by passing CO2 at constant pressure with open inlet and outlet valves. Once all the solvent had been removed, the reaction cell was depressurized, and the particles were collected.
Morphology and particle size were examined by scanning electron microscopy (JEOL JSM-6390LV.). Length and width measurements of 200 particles were obtained for each sample using Size Meter Software (version 1.1).

[3] = listed as Nonmicronized berberine

- solubility at 24 h ([1]; 1-butanol, 25 °C): 5.4 ± 0.578 µg/mL
- solubility at 24 h ([1]; 1-propanol, 25 °C): 3 ± 0.168 µg/mL
- solubility at 24 h ([1]; 1-propanol, 35 °C): 4.33 ± 0.082 µg/mL
- solubility at 24 h ([1]; acetone, 25 °C): 0.16 ± 0.004 µg/mL
- solubility at 24 h ([1]; acetone, 35 °C): 0.2 ± 0.007 µg/mL
- solubility at 24 h ([1]; dichloromethane, 25 °C): 1.27 ± 0.032 µg/mL
- solubility at 24 h ([1]; dichloromethane, 35 °C): 3.47 ± 0.091 µg/mL
- solubility at 24 h ([1]; ethanol, 25 °C): 2.82 ± 0.086 µg/mL
- solubility at 24 h ([1]; ethanol, 35 °C): 4.57 ± 0.254 µg/mL
- solubility at 24 h ([1]; methanol, 25 °C): 15.4 ± 1.61 µg/mL
- solubility at 24 h ([1]; methanol, 35 °C): 35 ± 1.98 µg/mL
- particle size, length [2, 3]: 13.24 μm
- particle size, width [2, 3]: 6.39 μm
- particle size, length ([2]; listed as Raw): 13.24 ± 8.66 μm
- particle size, width ([2]; listed as Raw): 6.39 ± 5.39 μm
SMILES: COc1ccc2cc3[n+](cc2c1OC)CCc1cc2c(cc1-3)OCO2 [Berberine, Berberine chloride]
